The structures appear in SMILES notation.

The text below walks through data of patent US20040116346A1, “Affinity small molecules for the EPO receptor” (priority 2002, published 2004).

In test [1] the test system is EPO-Receptor down stream signaling pathway in TF-1 or UT-7 cells. Put plainly: In vitro signaling (EPO-R activation). In kind it is cell-based. The protocol:
UT-7 cells were grown in Minimal Essential Medium Alpha (MEM-α) containing 20% FBS, 1.5 g/L NaHCO3, 5 ng/ml GM-CSF, and 100U Penicillin/100 ug/ml Streptomycin Sulfate (“P/S”), in T150 flasks (60 ml/flask) at 37° C., 5% CO2 to a density of no more than 5×10^5 cells/ml. The cells were starved overnight in MEM-α containing 10% FBS, 1.5 g/L NaHCO3 and P/S in T150 flasks (60ml/flask) at a density of 5×10^5 cells/ml, in 5% CO2, 37° C. The cells were then centrifuged in a swinging-bucket rotor at 200×g for 5 minutes at room temperature. The supernatant was removed, and the cells pooled into one 50 ml conical tube. The cells were washed twice with serum-free medium (MEM-alpha containing 1.5 g/L NaHCO3 and P/S). After the last wash, the cells were resuspended to a density of 1×10^7 cells/ml in serum-free medium. The cells were then placed in 15 ml conical tubes in 1 ml aliquots and incubated with the caps loosened for 1 hour at 37° C., 5% CO2. Every 10 minutes, the lower portion of each tube was tapped (flicked) several times to prevent the cells from settling (please note, this step is very important!)
It was also observed that EPO-R was phosphorylated when stimulated with non-peptide EPO-R modulators. (See FIG. 4) […]

Test [2] deals with Mouse or human bone marrow cells. Description: Formation of erythroid colonies (CFU-e, BFU-e) from bone marrow in methylcellulose. Type of test: cell-based. The note with it: mouse and human bone marrow. On the procedure: Mouse or human bone marrow cells were stimulated in methylcellulose for 7 days (mouse) or 14 days (human) with non-peptide EPO-R modulators. Formation of erythroid colonies was observed. (See FIGS. 6 to 8)
(1) Dilute human bone marrow 1:1 with sterile PBS. (2) Slowly layer bone marrow into 50 ml tubes containing 20 ml of LSM Lymphocyte separation medium (ICN/Cappel—cat #50494). 50 ml bone marrow will yield 2 tubes. (3) Spin tubes at 2000 rpm for 30 minutes with brake off. (4) Slowly take out the middle layer using a 10 ml pipette and transfer into a new 50 ml tube. (5) Add PBS +0.5% BSA +5 mM EDTA to tube for washing. (6) Spin tube for 5 minutes at speed 4 with brake on. (7) Repeat wash step 2 more times. (8) After 3rd wash, resuspend pellet in SF Iscoves' MDM medium. (9) Count by diluting cells in 3% acetic acid. (10) Dilute cells to desired concentration (5×10^5 cells/ml) and seed onto methylcellulose.
(1) Tubes containing 3.0 ml of methylcellulose medium (Stemcell Technology, cat #H4230) supplemented with 50 ng/ml hSCF are prepared. (Alternatively the methylcellulose could be supplemented with 50 ng/ml hSCF, 20 ng/ml of hIL-3 and hIL-6). (2) Compounds or EPO of desired concentrations are added to the tubes. […] Colonies are scored on day twelve.
Bone marrow cells were isolated from mouse femurs. […] The colonies were scored on day seven. […]

For the compound `Cc1ccc(Cl)cc1Nc1nc2nc(C)c(NCC3CC3)cn2n1` [Compound E5], the “activation of EPO-R” value in test [1] is “activation of EPO-R”. In test [2], the “CFU-e formation compared with EPO” value is “stimulate CFU-e formation to the same extent as EPO”.
